{"source": "patent US20130236568A1", "about": "“PHOSPHAPLATINS HAVING ANTI-ANGIOGENIC, ANTI-METASTATIC, AND PRO-APOPTOTIC PROPERTIES AND USES THEREOF” (Ohio University, priority 2011, published 2013)", "key": {"BAX": {"tested_on": "BAX", "assay": "Quantitative real-time PCR, Bax expression in HUVEC", "type": "cell-based, human", "settings": "HUVEC treated with pyrodach-4", "procedure": "(§1) Evaluations of selected gene expressions in Human Umbilical Vein Endothelial Cells (HUVEC) and Human Ovarian Cancer Cells by quantitative reverse transcriptase polymerase chain reaction (PCR)\n(§2) Quantitative real-time PCR experiments were performed to estimate the expression of a selection of targeted genes. HUVEC cells (Lonza Walkersville, Frederick, Md.) were cultured on 0.1% gelatin-coated petri dishes by following standard protocols recommended by the vendor in a humidified incubator by maintaining 5% CO2 at 37° C. […]\n(§3) Both treated and untreated cancer cells were maintained in RPMI 1640 medium with 10% fetal bovine serum, 2 μmol L-glutamine, 100 units/mL penicillin-streptomycin and 0.25 units/mL insulin solution, at 37° C. with 5% CO2. […] The quantity and purity of RNA were determined by UV spectroscopy (NanoDrop 2000 Thermo Scientific, Wilmington, Del.). A minimum absorbance ratio index (ratio of the absorbance measured at 260 nm over that at 280 nm) of 1.9 was used as an acceptable purity. […] The target gene was labeled with a blue dye (FAM, absorbance: 494 nm, emission: 518 nm) while the reference gene was tagged with a green dye (VIC, absorbance: 538 nm, emission: 554 nm). […]\n(§4) The threshold cycle number (Ct), the point at which the fluorescence of the qPCR reaction just exceeds the threshold fluorescence of the detection system, was determined. […]"}, "[1]": {"tested_on": "yeast deletion collection", "assay": "Genome-wide fitness assay in yeast (pooled deletion strains)", "type": "cell-based", "description": "The around 6000 strains in the yeast deletion collection can be studied in a single culture by using a microarray to detect the 20 bp DNA “barcodes” or “tags” contained in each strain. Barcode intensities are compared across time-points or across conditions to analyze the relative fitness of each strain. This development of the pooled fitness assay has greatly facilitated the functional annotation of the yeast genome by making genome-wide gene-deletion studies faster and easier, and has led to the development of high throughput methods for studying drug action in yeast. Pooled screens can be used for identifying gene functions, measuring the functional relatedness of gene pairs in order to group genes into pathways, identifying drug targets, and determining a drug's mechanism of action. This process involves five main steps: preparing aliquots of pooled cells, pooled growth, isolation of genomic DNA and PCR amplification of the barcodes, array hybridization (or next generation sequencing), and data analysis.\nThe pooled fitness assay involves five main steps (FIG. 3). First, the deletion collection is grown on solid media in arrayed format and the resulting cells are pooled and frozen to make cell aliquots that will be used for starting growth experiments. Cells are then grown in the desired conditions, typically for 5 to 20 generations. The barcodes from the resulting cell samples are prepared for hybridization by isolation of the genomic DNA and PCR amplification of the barcodes. The barcodes are amplified in two reactions to prevent crosstalk between the uptag and downtag primers. The resulting PCR products are then hybridized to tag arrays with one array needed per cell sample. Data is then analyzed to determine differences in strain representation between pairs of samples.\nTo analyze the genome wide effects of pyrodach-2 and -4, we screened 2 collections of strains, 1200 essential genes as heterozygote deletion mutants (reducing functional gene dose from 2 to 1) and 4800 non-essential genes as complete deletions (reducing functional gene dose from 2 to 0). Both compounds were screened at the highest dose possible (200 μM final concentration) to increase the likelihood of finding compound-specific sensitive strains.\nFitness profiling of pooled deletion strains involves […] main steps: • 1. Strains are first pooled at approximately equal abundance. • 2. The pool is grown competitively in the condition of choice and a control condition. If a gene is sensitive to the treatment condition, the strain carrying this deletion will grow more slowly and become under-represented relative to the control culture (purple strain). Resistant strains will grow faster and become over-represented (not shown). • 3. Genomic DNA is isolated from cells harvested at the end of pooled growth, and barcodes are amplified from the genomic DNA with universal primers. • 4. PCR products are then hybridized to an array that detects the tag sequences, giving tag intensities for the two samples. • 5. The treatment and control sample are then compared to determine the relative fitness of each strain. Note that only the purple strain is described as sensitive to the condition. While the red strain grows more slowly than the blue strain in the treatment, this growth difference in not of interest because it matches that seen in the control."}, "Caspase 9": {"tested_on": "Caspase 9", "assay": "Expression of key genes with and without p53 inhibitor (Table 3): Caspase 9", "type": "cell-based, human", "settings": "positive = manifold increase, negative = decrease vs untreated cells", "procedure": "Quantitative real-time PCR experiments were performed to estimate the expression of a selection of targeted genes. HUVEC cells (Lonza Walkersville, Frederick, Md.) were cultured on 0.1% gelatin-coated petri dishes by following standard protocols recommended by the vendor in a humidified incubator by maintaining 5% CO2 at 37° C. Human epithelial ovarian cancer cells (A2780) and cisplatin-resistant cells (A2780/C30) were cultured in RPMI 1640 with or without cisplatin (7 μM) and pyrodach-4 (180 μM) for 0, 3, 12 and 24 hours. […] HUVECs were treated with or without cisplatin (7 μM) or pyrodach-4 (90 or 180 μM) for various durations ranging from 1 hr. to 6 hrs.\nas §3, with “CO2. RNA was isolated from both the treated and untreated cells.” for “CO2.”"}, "caspase-9": {"tested_on": "caspase-9", "assay": "Quantitative real-time PCR, caspase-9 expression in HUVEC", "type": "cell-based, human", "settings": "HUVEC treated with pyrodach-4", "procedure": "as §1, §2, §3, §4"}}, "data": [{"substance": "trans-(±)-1,2-cyclohexanediamine-trans-dihydroxo(pyrophosphato) platinum(IV) [Pyrodach-4]", "values": [{"measurement": "Over-expression of Bax", "setting": "BAX", "value": "2-3 fold"}, {"measurement": "Tolerability by the yeast cell (few sensitive strains)", "setting": "[1]; highest dose possible, 200 μM final concentration", "value": "well tolerated by the cell"}, {"measurement": "Functions enriched among sensitive strains", "setting": "[1]; yeast deletion strains, 200 μM final concentration", "value": "1) iron and copper transport and 2) metal-regulated transcription factors"}, {"measurement": "Sensitivity of DNA damage/repair genes (NER, HRR, PRR)", "setting": "[1]; yeast deletion strains, phosphaplatins at 200 μM final concentration", "value": "not a single gene involved in DNA repair or other DNA metabolic processes showed any sensitivity as a mutant"}, {"measurement": "Expression of Caspase 9", "setting": "Caspase 9; Pyrodach-4 + PFT-α", "value": 1.0}, {"measurement": "Expression of Caspase 9", "setting": "Caspase 9; Pyrodach-4 treatment only", "value": 2.0}, {"measurement": "Over-expression of caspase-9", "setting": "caspase-9", "value": "2-3 fold"}]}]}
